Experimental findings from ChEMBL document CHEMBL5370525, “Antibiotics with novel mode of action as new weapons to fight antimicrobial resistance” (Eur J Med Chem, 2023) are described below.

pKi: −log10 of the molar value. In brackets after ≈: the same amount, converted by molar mass.

As a reminder, the MIC is the least concentration at which growth counts as inhibited. Broadly, the MIC50 is the lowest concentration that inhibits either 50% of growth or 50% of the strains tested, depending on the study. What is called MIC80 is the lowest concentration that inhibits either 80% of growth or 80% of the strains tested, depending on the study. By Cmax is commonly meant the maximum level reached in the sampled fluid or tissue. As a reminder, the AUC(0-t) is the area under the concentration-time curve up to a stated or last time point. The low end stands for low exposure, the high end for high exposure. As a reminder, the MIC90 is the lowest concentration that inhibits either 90% of growth or 90% of the strains tested, depending on the study. One may read the ED50 as the midpoint of the dose-response relation. The low end stands for greater potency, the high end for weaker potency. One may read the bioavailability as dose-corrected exposure relative to a reference, in per cent. Read a low bioavailability as little systemic uptake. By pKi is commonly meant −log10 of the Ki, conventionally taken in molar units.

Data set [1] concerns Clostridioides difficile. In words: Antibacterial activity against Clostridium difficile clinical isolates assessed as inhibition of bacterial growth. Format: functional.
The test system of data set [2] is Clostridioides difficile. In words: Antibacterial activity against Clostridium difficile clinical isolates assessed as inhibition of bacterial growth incubated for 48 hrs by CLSI-based assay. Format: functional.
In data set [3] the test system is Clostridioides difficile. In words: Antibacterial activity against Clostridium difficile clinical isolates assessed as inhibition of bacterial growth incubated for 44 hrs by CLSI-based broth microdilution assay. Format: functional.
Data set [4] relates to Staphylococcus aureus. Put plainly: Antibacterial activity against Staphylococcus aureus assessed as inhibition of bacterial growth. Format: functional.
Data set [5] in a line: Cmax in mouse at 0.3 mg/kg, po incubated for 24 hrs by LC-MS-MS analysis. Format: ADME, organism-based. The arrangement: dose 0.3 mg/kg, time 24 hrs, route po. Particulars: in vivo.
In data set [6] the test system is Staphylococcus aureus. Put plainly: Antibacterial activity against Staphylococcus aureus smith infected CD-1 mouse assessed as survival rate at 1 mg/kg, po relative to control. Format: functional.
Data set [7] is described as follows: Plasma protein binding in mouse at 0.2 to 10 ug/ml by equilibrium dialysis. Format: ADME, cell-free. Particulars: at 0.2 to 10 µg/mL, dose 0.2-10 µg/ml, read-out: PPB. Background: In equilibrium dialysis only unbound substance equilibrates across the membrane.
Data set [8] is described as follows: Plasma protein binding in dog at 0.2 to 10 ug/ml by equilibrium dialysis. Format: ADME, cell-free, Canis lupus familiaris. Particulars: at 0.2 to 10 µg/mL, dose 0.2-10 µg/ml, read-out: PPB.
The nature of data set [9]: AUC (0 to t) in mouse at 0.6 mg/kg, po incubated for 24 hrs by LC-MS-MS analysis. Format: ADME, organism-based. The arrangement: dose 0.6 mg/kg, time 24 hrs, route po. Particulars: in vivo.
Data set [10] relates to Staphylococcus aureus. In words: Antibacterial activity against Staphylococcus aureus clinical isolate assessed as bacterial growth inhibtion by CLSI-based broth microdilution method. Format: functional. In general terms: In broth dilution the organism is exposed to a series of concentrations in liquid medium.
Data set [11] is described as follows: Elimination half life in mouse at 0.3 to 1 mg/kg, po incubated for 24 hrs by LC-MS/MS analysis. Format: ADME, organism-based. Particulars: in vivo, dose 0.3-1 mg/kg, read-out: beta t1/2 (converted).
The nature of data set [12]: Plasma protein binding in Sprague-Dawley rat at 0.2 to 10 ug/ml by equilibrium dialysis. Format: ADME, cell-free. The following applies: at 0.2 to 10 µg/mL, dose 0.2-10 µg/ml, read-out: PPB.
Data set [13] in a line: Plasma protein binding in human at 0.2 to 10 ug/ml by equilibrium dialysis. Format: ADME, cell-free. Particulars: at 0.2 to 10 µg/mL, dose 0.2-10 µg/ml, read-out: PPB.
The nature of data set [14]: Cmax in mouse at 0.6 mg/kg, po incubated for 24 hrs by LC-MS-MS analysis. Format: ADME, organism-based. The arrangement: dose 0.6 mg/kg, time 24 hrs, route po. Particulars: in vivo.
In data set [15] the test system is Staphylococcus aureus. Put plainly: Post antibiotic effect against methicillin sensitive Staphylococcus aureus 29213 at 32 times of MIC incubated for 4 hrs by. Format: functional.
In data set [16] the test system is Staphylococcus aureus. Put plainly: Antibacterial activity against Staphylococcus aureus smith infected oral dosed CD-1 mouse. Format: functional.
A short description of data set [17]: Cmax in mouse at 1 mg/kg, po incubated for 24 hrs by LC-MS-MS analysis. The following applies: in vivo. Format: ADME, organism-based. Further details: time 24 hrs, dose 1 mg/kg, route po.
Data set [18] deals with Staphylococcus aureus. In words: Post antibiotic effect against methicillin sensitive Staphylococcus aureus 29213 at 128 times of MIC incubated for 4 hrs by. Format: functional.
A short description of data set [19]: AUC (0 to t) in mouse at 1 mg/kg, po incubated for 24 hrs by LC-MS-MS analysis. The arrangement: dose 1 mg/kg, time 24 hrs, route po. The following applies: in vivo. Format: ADME, organism-based.
Data set [20] in a line: AUC (0 to t) in mouse at 0.3 mg/kg, po incubated for 24 hrs by LC-MS-MS analysis. The following applies: in vivo. Format: ADME, organism-based. The arrangement: dose 0.3 mg/kg, time 24 hrs, route po.
Data set [21] in a line: Oral bioavailability in hamster. Format: ADME, organism-based, Mesocricetus auratus. Particulars: in vivo.
In the next data set the test system is Pseudomonas aeruginosa. Put plainly: Antibacterial activity against Pseudomonas aeruginosa clinical isolates assessed as inhibition of bacterial growth incubated for 44 hrs by CLSI-based broth microdilution assay. Format: functional.
A short description of data set [22]: Oral bioavailability in Beagle dog. Format: ADME, organism-based, Canis lupus familiaris. The following applies: in vivo.
Data set [23] concerns Staphylococcus aureus. In words: Antibacterial activity against Meticillin-resistant Staphylococcus aureus clinical isolates assessed as inhibition of bacterial growth incubated for 44 hrs by CLSI-based broth microdilution assay. Format: functional.
The test system of the next data set is Actinomyces sp. Put plainly: Antibacterial activity against Actinomyces sp. clinical isolates assessed as inhibition of bacterial growth incubated for 48 hrs by CLSI-based Serial 2-fold dilution. Format: functional.
The nature of data set [24]: Binding affinity to N-terminal His-tagged Full-length human cytoplasmic MetRS2 expressed in Escherichia coli assessed as inhibition constant by tRNA aminoacylation/ATP:PPi assay. Format: subcellular, Cytoplasm.
The nature of data set [25]: Binding affinity to N-terminal His-tagged Full-length Staphylococcus aureus MetRS1 expressed in Escherichia coli assessed as inhibition constant by tRNA aminoacylation/ATP:PPi assay.
In another data set the test system is Klebsiella pneumoniae. In words: Antibacterial activity against Klebsiella pneumoniae clinical isolates assessed as inhibition of bacterial growth incubated for 44 hrs by CLSI-based broth microdilution assay. Format: functional.
Data set [26] is described as follows: Binding affinity to N-terminal His-tagged Full-length Escherichia coli MetRS2 expressed in Escherichia coli assessed as inhibition constant by tRNA aminoacylation/ATP:PPi assay.
The next data set relates to Enterococcus faecium. In words: Antibacterial activity against Vancomycin-resistant Enterococcus faecium clinical isolates assessed as inhibition of bacterial growth incubated for 44 hrs by CLSI-based broth microdilution assay. Format: functional.
Another data set deals with Escherichia coli. Put plainly: Antibacterial activity against Escherichia coli clinical isolates assessed as inhibition of bacterial growth incubated for 44 hrs by CLSI-based broth microdilution assay. Format: functional.
The next data set relates to Acinetobacter baumannii. Put plainly: Antibacterial activity against Acinetobacter baumannii clinical isolates assessed as inhibition of bacterial growth incubated for 44 hrs by CLSI-based broth microdilution assay. Format: functional.
The nature of data set [27]: Oral bioavailability in Sprague-Dawley rat. Format: ADME, organism-based. Particulars: in vivo.
The next data set has as its system Bifidobacterium sp. Put plainly: Antibacterial activity against Bifidobacterium sp. clinical isolates assessed as inhibition of bacterial growth incubated for 48 hrs by CLSI-based Serial 2-fold dilution. Format: functional.
Data set [28] in a line: Binding affinity to N-terminal His-tagged Full-length Haemophilus influenzae MetRS2 expressed in Escherichia coli assessed as inhibition constant by tRNA aminoacylation/ATP:PPi assay.
Data set [29] in a line: Binding affinity to N-terminal His-tagged Full-length Streptococcus pneumoniae MetRS1 expressed in Escherichia coli assessed as inhibition constant by tRNA aminoacylation/ATP:PPi assay.
Data set [30] is described as follows: Binding affinity to N-terminal His-tagged Full-length Clostridium difficile MetRS1 expressed in Escherichia coli assessed as inhibition constant by tRNA aminoacylation/ATP:PPi assay. The arrangement: species or system Clostridioides difficile.
The nature of data set [31]: Binding affinity to N-terminal His-tagged Full-length human mitochondrial MetRS1 expressed in Escherichia coli assessed as inhibition constant by tRNA aminoacylation/ATP:PPi assay. Format: mitochondria, Mitochondria.
The next data set deals with Lactobacillus sp. In words: Antibacterial activity against Lactobacillus sp. clinical isolates assessed as inhibition of bacterial growth incubated for 48 hrs by CLSI-based Serial 2-fold dilution. Format: functional.

With `CN[C@H](CC(C)C)C(=O)N[C@H]1C(=O)N[C@@H](CC(N)=O)C(=O)N[C@H]2C(=O)N[C@H]3C(=O)N[C@H](C(=O)N[C@H](C(=O)O)c4cc(O)cc(O)c4-c4cc3ccc4O)[C@H](O)c3ccc(c(Cl)c3)Oc3cc2cc(c3O[C@@H]2O[C@H](CO)[C@@H](O)[C@H](O)[C@H]2O[C@H]2C[C@](C)(N)[C@H](O)[C@H](C)O2)Oc2ccc(cc2Cl)[C@H]1O` [VANCOMYCIN], the MIC in the data set on Clostridioides difficile [1] and in the data set with Clostridioides difficile [3] was 0.25 µg/mL (≈ 0.173 µM) in each case. Further, the MIC50 in the data set with Clostridioides difficile [2] came out at 1 µg/mL (≈ 0.69 µM).

On to `Cn1cc(NC(=O)c2cc(NC(=O)c3ccc(/C=C/c4cnc5ccccc5c4)cc3)cn2C)cc1C(=O)NCCN1CCOCC1` [MGB-BP-3], for which, in the data set with Staphylococcus aureus [4], the MIC80 is < 0.2 µM.

As to `Cc1ncc([N+](=O)[O-])n1CCO` [METRONIDAZOLE], in the data set with Clostridioides difficile [1], the MIC came to 0.15 µg/mL (≈ 0.876 µM). The MIC50 in the data set on Clostridioides difficile [2] was determined as 1 µg/mL (≈ 5.84 µM).

As to `Cc1c(CN(C)C(=O)/C=C/c2cnc3c(c2)CCC(=O)N3COP(=O)(O)O)oc2ccccc12` [AFABICIN], the Cmax was 154 ng/mL in [5], 196 ng/mL in data set [14] and 304 ng/mL in [17]. The survival at 1 mg/kg in the data set on Staphylococcus aureus [6] came to 100%. The fraction unbound in [7], in data set [8], in data set [12] and in data set [13] was < 0.05 in each case. Also, the AUC(0-t) at 24 h worked out at 196 ng·h/mL in [9], 1.03 µg·h/mL in [19] and 367 ng·h/mL in data set [20]. Besides, the MIC90 in the data set with Staphylococcus aureus [10] is < 0.015 µg/mL. In addition, in [11], the half-life is 300 min. Further, the PAE in the data set with Staphylococcus aureus [15] worked out at 0.1 h; with Staphylococcus aureus [18], 1.1 h. This molecule had an ED50 in the data set on Staphylococcus aureus [16] of 0.15 mg/kg.

As for `O=c1cc(NCCCN[C@@H]2CCOc3c(Br)cc(Br)cc32)[nH]c2ccsc12` [CRS-3123], the bioavailability in data set [21] is 0.6%; in data set [22], < 1%; in data set [27] it was < 1%. Besides, the MIC in the data set with Pseudomonas aeruginosa was > 32 µg/mL; in the data set with Staphylococcus aureus [23], 0.015 µg/mL (≈ 0.0292 µM); with Actinomyces sp., > 32 µg/mL; with Klebsiella pneumoniae, > 32 µg/mL; with Enterococcus faecium, < 4 ng/mL; with Escherichia coli it was > 32 µg/mL. For the same molecule, the MIC was > 32 µg/mL with Acinetobacter baumannii, > 32 µg/mL with Bifidobacterium sp., > 32 µg/mL with Lactobacillus sp. and 0.5 µg/mL (≈ 0.974 µM) in the data set with Clostridioides difficile [3]. For the same molecule, the pKi in data set [24] is < 4.70; in [25] it was 10.77; in data set [26], 5.72; in data set [28] it was 6.75; in data set [29], 10.10; in [30], 10.70. The pKi in data set [31] is 7.55.
